Experimental data as given in patent US12215123B2, “Cordycepin-based derivatized compound with anti-tumor effect” (NANJING TECH UNIVERSITY, priority 2022, dated 2025).
Like-named read-outs stand apart in the source and are kept apart here.

Key:
[1] = system: BGC-823 gastric cancer cells; test: Mouse transplanted gastric cancer model; assay type: in vivo, C57BL/6j nude mice; details: BGC-823 transplanted mice, intragastric 500 ug/time/animal every day, 18 days; for tumor weight: control 1.73 g
Procedure: (§1) The feeding of the mouse model in the drug evaluation follows that: mice are fed and treated in a laminar flow cabinet, with 5 nude mice in each cage, drinking water and feedstuffs are added once every 3 days, and paddings are replaced once a week; a number of mice kept in each cage is no more than 5, the mice in separate cages are kept in groups as far as possible, and the mice should not be kept in a single cage; the animal management must conform to the relevant national standards on animal feeding management, and the behavioral needs of animals should be concerned at the same time to avoid unnecessary stress; the normal physiological and behavioral needs of animals, such as defecation, urination, constant body temperature maintenance, normal activities, posture adjustment and reproduction are met; good ventilation and dry animals are kept; the animals can access to drinking water and food at will, and supplementation, replacement and cleaning operations are easily carried out; a solid and safe environment is provided to avoid accidents of animals, such as escaping or limb trapping in a gap; the animals are avoided from being damaged by sharp edges or protrusions; and the animals are not disturbed during observation.
A mouse transplanted gastric cancer model was established and a drug was evaluated. 2×10^7 BGC-823 gastric cancer cells were suspended in 100 μL of PBS to be inoculated into an anterior chest wall of C57BL/6j nude mice, disinfection was carried out with 75% ethanol, and the most obvious part of apical impulse was touched with hand to inoculate the cells to a left ventricle in a second intercostal space about 3 mm to the left of the sternum. About one week later, when the transplanted tumor reached about 100 mm^3, the mice were randomly divided into five groups, with 10 mice in each group, comprising a control group, a cordycepin group, and compound 16, compound 18 and compound 24 drug groups respectively. The control group was intragastrically administrated with a nutritional agent such as a corn steep liquor and DMSO as a solvent control every day; the cordycepin group was intragastrically administrated with the cordycepin (500 ug/time/animal) every day under configuration with DMSO; and the compound drug groups were intragastrically administrated with the compounds (500 ug/time/animal) every day under configuration with DMSO. The administration was carried out for 18 consecutive days. Changes of gastric tumor sizes in the five groups of mice were observed every two days, the mice were killed after the experiment, blood and corresponding tissue samples were collected, and tumor bodies were immediately photographed and weighed.

[2] = system: small cell lung cancer cell line H1048; test: MTT proliferation, small cell lung cancer cell line H1048; assay type: cell-based; details: read-out: IC50 (μM) of compounds in small cell lung cancer cells, H1048
In short: (§2)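 MTT assay: cells seeded at 2 to 4×10^4 cells/mL, grown 24 h, then exposed to compound for 72 h. MTT added for 4 h, formazan dissolved in DMSO and absorbance read at 570 nm; IC50 taken from the S-shaped concentration-inhibition curve.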

[3] = system: small cell lung cancer cell line H446; test: MTT proliferation, small cell lung cancer cell line H446; assay type: cell-based; details: read-out: IC50 (μM) of compounds in small cell lung cancer cells, H446
In short: as §2

[4] = system: pancreatic cancer Pan02-luc cells; test: Mouse transplanted pancreatic cancer model, survival; assay type: in vivo, C57BL/6j nude mice; details: intragastric 500 ug/time/animal every day for 24 days, control 41 days
Procedure: as §1, with “observation. […]” for “observation.”

[5] = system: small cell lung cancer cell line H69; test: MTT proliferation, small cell lung cancer cell line H69; assay type: cell-based; details: read-out: IC50 (μM) of compounds in small cell lung cancer cells, H69
In short: as §2

[6] = system: gastric cancer cell line BGC-823; test: MTT proliferation, gastric cancer cell line BGC-823; assay type: cell-based; details: Homo sapiens, read-out: IC50 (μM) in gastric cancer cells, BGC-823
In short: (§3)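 Tumour cells in exponential growth were trypsinised, seeded at 2 to 4×10^4 cells/mL, cultured 24 hours, then exposed to compounds for 72 hours. MTT was added for 4 hours, formazan dissolved in DMSO and absorbance read at 570 nm. IC50 came from an S curve of inhibition rate against concentration.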

[7] = system: gastric cancer cell line AGS; test: MTT proliferation, gastric cancer cell line AGS; assay type: cell-based; details: read-out: IC50 (μM) in gastric cancer cells, AGS
In short: as §3

CC(C)OC(=O)C(C)NP(=O)(COC[C@@H]1CC(O)[C@H](n2cnc3c(NC(=O)c4ccncc4)ncnc32)O1)Oc1ccccc1 (stereo partly drawn) [Compound 24, isopropyl((((4-hydroxy-5-(6-(isonicotinamide)-9H-purin-9-yl)tetrahydrofuran-2-yl)methoxy)methyl)(phenoxy)phosphoryl)alanine ester]
tumor weight, times lower than that of the control group [1]: about 12 times | tumor weight [1]: 0.14 g | IC50 ([2]; Homo sapiens, NCI-H1048, 72 h): 24.4 µM | IC50 ([3]; Homo sapiens, NCI-H446, 72 h): 17.2 µM | survival time of the tumor-bearing mice (median survival time) [4]: 76 days | IC50 ([5]; 72 h): 25.5 µM | IC50 ([6]; BGC-823, 72 h): 0.09 µM | IC50 ([7]; 72 h): 0.13 µM

Nc1ncnc2c1ncn2[C@@H]1O[C@H](CO)C[C@H]1O [Cordycepin, 3′-deoxyadenosine]
tumor weight, times lower than that of the control group [1]: about 4 times | tumor weight [1]: 0.46 g | IC50 ([2]; Homo sapiens, NCI-H1048, 72 h, MTT, 72 hours, H1048): > 100 µM | IC50 ([2]; MTT, 72 hours, H1048): 172 µM | IC50 ([3]; Homo sapiens, NCI-H446, 72 h, MTT, 72 hours, H446): > 100 µM | IC50 ([3]; MTT, 72 hours, H446): 123 µM | survival time of the tumor-bearing mice (median survival time) [4]: 52 days | IC50 ([5]; MTT, 72 hours, H69): 63.1 µM | IC50 ([6]; MTT, 72 hours, BGC-823): 235 µM | IC50 ([7]; MTT, 72 hours, AGS): 372 µM
